Results published in US8097585B2, “Methods of treating inflammation by administration of heme oxygenase-1 and products of heme degradation” (priority 2002, dated 2012).
Where a name gives a salt, the structure may show the parent alone.

Columns and labels:
[1] = test system: DBA/2 cardiac allografts in B6AF1 recipients; assay: Heterotopic cardiac allograft transplantation, graft survival; assay type: in vivo, mice
Description: Animals. Male DBA/2 (H-2^d), B6AF1 (H-2^k/d,b) and FVB (H-2^q) mice were purchased from Jackson Lab. Inc. (Bar Harbor, Me.). They were maintained in the institutional specific-pathogen free facility, which has an appropriate light cycle with free access to water and chow ad libitum, and used for experiments at age of 6-10 weeks.
Cardiac transplantation. DBA2/J and B6AF1 mice were used as donor and recipient, respectively. Heterotopic heart transplantation was carried out according to the procedure of Corry and Russell (Corry et al., Transplant Proc. 5(1):733-5, 1973). […] Secondary heart grafting into the neck was performed using a cuff technique as described previously (Matsuura et al., Transplantation 51(4):896-8, 1991). Briefly, the heart graft was harvested from either DBA2/J (donor strain) or FVB (third-party strain) mice. The right jugular vein and the right common carotid artery of recipient were dissected, and a cuff (polyethylene or polyimide) was connected to these vessels. The graft aorta and pulmonary artery were sleeved over the cuff on the recipient's common carotid artery and the jugular vein, respectively, and fixed with a ligature. After transplantation, beating of the graft was monitored by daily palpation, and scored +1 to +4 according to the strength of graft contractions. Graft rejection was defined as cessation of beating, and was confirmed by direct inspection followed by histological examination.
Donor and recipient mice were treated either with CoPPIX (5 mg/kg/day), ZnPPIX (5 mg/kg/day) or biliverdin (administered once, twice or three times per day at a dose of 50 μmol/kg/dose). All reagents were administered by intraperitoneal (i.p.) injection. Donor animals were treated for 2 days, starting from 2 days before graft harvest (day-2 and day-1). Treatment of recipient mice was initiated one day before transplantation, and continued until 13 days post-transplant (day-1 to day 13). For the experiments using donor splenocyte infusion (DSI) on day-7 (DSI (D-7)), treatments of recipient animals (either with CoPPIX or ZnPPIX) started from day-8 and were terminated on day 6. Recipients received no further treatment. Spleen cells (2×10^7) isolated from DBA/2J mice as described herein were used for DSI treatment. The cells were injected via the penile vein with 200 μl of 0.9% saline solution.
Statistics. Cardiac graft survival was plotted by the Kaplan-Meier method, and a log-rank test was applied to compare statistical significance. Expression levels of HO-1/α-actin protein are expressed as mean±standard deviation. Other data are expressed as mean±standard error of the mean (mean±SEM). Intergroup statistical analysis was performed by one-way ANOVA, and Fisher's PSLD was used for a post-hoc test. A comparison was considered statistically significant when the p-value was <0.05.

[2] = test system: DBA/2 islets in diabetic B6AF1 recipients; assay: Allogeneic islet transplantation, graft survival and tolerance test; assay type: in vivo, mice
Description: Animals. Male DBA/2, B6AF1 and DBA/1 mice 6-8 week of age (Jackson) are used in the experiments. Mice were kept for 2 weeks at 4 mice/cage and fed normal laboratory chow before using for the experiment.
Treatment protocol. Recipients were rendered diabetic using streptozotocin (STZ, 225 mg/kg). Five days after STZ administration, animals with two consecutive blood glucose levels exceeding 350 mg/dl are used as recipients. Islets (500) are transplanted under the kidney capsule of the recipients.
Reagents. Cobalt protoporphyrin (CoPPIX, Porphyrin Products, Logan, Utah), biliverdin dihydrochloride and bilirubin (ICN Biomedicals Inc., OH) were dissolved in a small amount of 0.2 M NaOH, subsequently adjusted to a pH of 7.4 with 1 M HCl, and diluted in 1×PBS. The stock solutions (CoPPIX=2 mg/ml, biliverdin=3.2 mg/ml, bilirubin=0.5 mg/ml) were aliquoted and kept at −70° C. until used. Light exposure was limited as much as possible.
Induction of HO-1/Administration of biliverdin/bilirubin. When given to the donor, CoPPIX (20 mg/kg) was given 24 hours before islet isolation to induce HO-1 expression. To verify HO-1 expression in different organs after CoPP treatment, tissue samples are collected 24 hours after treatment and snap frozen in liquid nitrogen. Immunohistological analysis of HO-1 expression is performed using an anti-HO-1 antibody. CoPPIX (20 mg/kg) was administrated to the recipient intraperitoneally (i.p.) on day-1, 1, 3, 5 and 7. Biliverdin (50 μmol/kg) or bilirubin (8.5 μmol/kg) was given intraperitoneally to the donor one hour before islet isolation. For the recipient, biliverdin (50 μmol/kg) or bilirubin ([…]) was administered intraperitoneally either daily or twice per day from day-1 until day 13. No further treatment was given afterwards.
Measurement of Glucose level. Glucose levels were tested twice weekly after transplantation. Glucose levels of <200 mg/dl were considered normoglycemic. Grafts were considered rejected when two consecutive glucose levels were >300 mg/dl.
Tolerance test. The first graft was removed from a number of animals that had islets surviving long-term (longer than 100 days) by doing a nephrectomy. Islets syngeneic with the original donor were transplanted under the contralateral kidney capsule without further treatment. If those second transplanted islets also survived longer than 100 days without further treatment, the recipients were considered tolerant.

B6AF1 splenocytes = assay: Mixed lymphocyte culture (irradiated DBA/2 splenocytes as stimulators) in vitro; assay type: cell-based, mouse; conditions: biliverdin 10 μM
Description: Mixed lymphocyte culture (MLC). Irradiated (25Gy, ^137Cs) DBA/2 splenocytes (5×10^5/well) were co-cultured with responders (5×10^5/well) in a 96 well round bottom plates for 3 days at 37° C., 95% air with 5% CO2. When using cells from cardiac recipients as responders, the co-culture period was 3 days without any further in vitro treatment. ^3H-thymidine (1 μCi/well) was added 16 hours before termination of cell culture, and ^3H-thymidine incorporation was measured.

[3] = long-term acceptors after biliverdin, second set transplantation, n=3

C=CC1=C(C)c2cc3[n-]c(cc4nc(cc5[n-]c(cc1n2)c(C)c5CCC(=O)[O-])C(CCC(=O)[O-])=C4C)c(C)c3C=C.[Co+2].[H+].[H+] [CoPP, Cobalt protoporphyrin]
grafts surviving long-term, >100 days ([1]; 5 mg/kg/day i.p., donor from day-2, recipient day-1 to day 13, 2 of 6): 33.3% | MST of the other 4 rejected grafts ([1]; CoPPIX 5 mg/kg/day i.p.): 18 days | allografts surviving over 100 days ([1]; CoPPIX (donor 2 days, recipient day-8 to day 6) plus DSI (D-7), 7/7): 100% | grafts surviving long-term for more than 100 days ([1]; CoPPIX together with DSI (D0), 7 of 8): 87.5% | islet allograft survival ([2]; CoPP 20 mg/kg, donor one day before, recipient days −1, 1, 3, 5 and 7): prolongation of survival in general but also to some islets surviving long-term | islet allograft survival ([2]; CoPP, HO-1 induced only in the donor): prolonged survival and function of the islets in the recipient but also to an occasional long-term surviving graft | acceptance of 2nd graft (DBA/2 islets) in tolerance test ([2]; all five animals, no further treatment): > 100 days | third party grafts in tolerance test ([2]; n=3): rejected rapidly

C=CC1=C(C)/C(=C/C2=NC(=C\c3[nH]c(/C=C4\NC(=O)C(C)=C4C=C)c(C)c3CCC(=O)O)/C(CCC(=O)O)=C2C)NC1=O [biliverdin, biliverdin dihydrochloride]
grafts surviving for more than 100 days ([1]; biliverdin two (every 12 hours) or three (every 8 hours) times per day, 50 μmol/kg per dose, 4 of 6): 66.7% | acceptance of secondary heart graft from the donor strain [1, 3]: more than 60 days | rejection of third party (FVB) graft [1, 3]: ≤ 11 days | graft median survival time (MST) ([1]; one dose per day i.p. (ZnPPIX 5 mg/kg; biliverdin 50 μmol/kg), untreated 11.5 days): 20.5 days | alloantigen mediated T cell activation (proliferation) (B6AF1 splenocytes): significant suppressive effect | antigen specific tolerance ([2]; long-term survival animals): seen in some | long-term surviving islets ([2]; treatment of the recipient only): significant percentage of long-term surviving islets
